This is an account of results in the supplement of paper PMC12076712.

Each structure is given as a SMILES string.

Common to all, as to assay: pIC50, kinobeads binding competition
In experiment [1] the target is T1, UniProt Q9UQB9.
T1 sequence (whole entry): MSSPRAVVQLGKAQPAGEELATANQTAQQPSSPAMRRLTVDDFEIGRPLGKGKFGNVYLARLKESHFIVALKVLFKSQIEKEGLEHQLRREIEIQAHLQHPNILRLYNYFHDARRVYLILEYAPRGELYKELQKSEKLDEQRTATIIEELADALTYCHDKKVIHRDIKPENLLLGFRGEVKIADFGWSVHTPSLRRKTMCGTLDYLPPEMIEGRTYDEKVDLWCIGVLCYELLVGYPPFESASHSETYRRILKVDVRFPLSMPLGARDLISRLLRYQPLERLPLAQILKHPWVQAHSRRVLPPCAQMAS
Summed up: (§1)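 To obtain pIC50, fold changes versus vehicle were fitted to logistic dose-response curves (R drc package) across biological duplicates. Protein binding to Kinobeads was quantified by TMT10 LC-MS/MS of digested bead-bound proteins. Treatments used nine concentrations with a top of 30 μM, applied to live Jurkat cells in 1:4 steps for 60 min at 37 °C before lysis, or to Jurkat lysate or a 1:1:1:1 HEK293/K-562/HepG2/placenta lysate mix in 1:5 steps for 60 min at 4 °C.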

Experiment [2] deals with UniProt P57059. The following applies: cell material: Lysate mix. Summed up:
as §1

The target in experiment [3] is UniProt P06493. Summed up:
as §1

For experiment [4], the target named is T2, TEC (UniProt P42680).
T2 sequence (whole entry): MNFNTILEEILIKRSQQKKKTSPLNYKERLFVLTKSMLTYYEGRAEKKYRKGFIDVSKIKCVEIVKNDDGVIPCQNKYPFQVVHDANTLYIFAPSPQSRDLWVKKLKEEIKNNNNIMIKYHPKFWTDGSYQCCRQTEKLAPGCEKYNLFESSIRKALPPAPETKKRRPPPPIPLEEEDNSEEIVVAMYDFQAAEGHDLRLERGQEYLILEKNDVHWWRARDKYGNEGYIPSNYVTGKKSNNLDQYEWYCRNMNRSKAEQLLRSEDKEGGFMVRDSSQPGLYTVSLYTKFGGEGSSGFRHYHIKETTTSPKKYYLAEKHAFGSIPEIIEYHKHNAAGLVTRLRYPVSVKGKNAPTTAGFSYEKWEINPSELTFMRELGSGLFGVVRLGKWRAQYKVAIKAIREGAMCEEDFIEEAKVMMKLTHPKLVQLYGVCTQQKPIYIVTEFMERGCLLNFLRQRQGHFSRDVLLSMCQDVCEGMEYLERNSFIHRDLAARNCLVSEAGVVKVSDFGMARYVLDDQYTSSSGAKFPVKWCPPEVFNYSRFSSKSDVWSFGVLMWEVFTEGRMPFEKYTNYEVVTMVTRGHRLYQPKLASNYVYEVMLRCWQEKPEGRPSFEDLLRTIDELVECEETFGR
Summed up:
as §1

For experiment [5], the target named is UniProt Q02750. A digest of the protocol: as §1
Experiment [6] addresses UniProt Q14004. Summed up: as §1
Experiment [7] concerns the target UniProt P00519. Summed up: as §1
In experiment [8] the target is MAPKAPK3 (UniProt Q16644). Summed up:
as §1

Experiment [9] deals with UniProt Q16512. A digest of the protocol: as §1
Experiment [10] addresses UniProt P45984. Summed up:
as §1

The target of experiment [11] is UniProt Q9P289. Summed up: as §1
UniProt Q9P289, sequence (Q9P289 whole entry, looked up): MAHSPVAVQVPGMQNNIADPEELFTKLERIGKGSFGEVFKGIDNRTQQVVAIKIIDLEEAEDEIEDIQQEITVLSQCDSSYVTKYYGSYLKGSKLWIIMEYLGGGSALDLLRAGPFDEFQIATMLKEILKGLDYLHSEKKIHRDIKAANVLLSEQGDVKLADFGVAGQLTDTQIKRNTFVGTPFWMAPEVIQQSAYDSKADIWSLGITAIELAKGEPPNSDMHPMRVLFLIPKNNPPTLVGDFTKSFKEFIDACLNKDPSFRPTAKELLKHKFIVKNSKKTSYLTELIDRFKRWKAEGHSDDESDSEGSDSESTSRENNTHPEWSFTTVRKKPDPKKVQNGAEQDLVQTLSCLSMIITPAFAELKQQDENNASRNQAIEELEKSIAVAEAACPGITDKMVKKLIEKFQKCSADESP
Experiment [12] has as its target T3, IRAK3 (UniProt Q9Y616).
T3 sequence (whole entry): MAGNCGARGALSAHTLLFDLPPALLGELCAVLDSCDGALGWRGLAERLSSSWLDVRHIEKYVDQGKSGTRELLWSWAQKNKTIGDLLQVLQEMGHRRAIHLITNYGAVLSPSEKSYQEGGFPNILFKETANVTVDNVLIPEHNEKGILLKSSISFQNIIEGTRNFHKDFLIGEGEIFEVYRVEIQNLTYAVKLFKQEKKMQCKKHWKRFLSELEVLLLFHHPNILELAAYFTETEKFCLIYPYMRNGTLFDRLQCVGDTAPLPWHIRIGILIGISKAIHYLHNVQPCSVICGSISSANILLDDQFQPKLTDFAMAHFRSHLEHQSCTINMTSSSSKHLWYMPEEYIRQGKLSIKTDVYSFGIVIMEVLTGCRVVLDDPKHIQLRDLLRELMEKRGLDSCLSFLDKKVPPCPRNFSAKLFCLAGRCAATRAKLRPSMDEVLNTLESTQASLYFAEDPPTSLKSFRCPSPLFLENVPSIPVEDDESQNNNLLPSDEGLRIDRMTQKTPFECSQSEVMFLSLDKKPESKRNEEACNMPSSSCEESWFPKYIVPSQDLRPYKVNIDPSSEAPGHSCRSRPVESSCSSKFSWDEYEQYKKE
The following applies: cell material: Lysate mix. Summed up: as §1

Experiment [13] has as its target MET (UniProt P08581). As to conditions: cell material: Lysate mix. Summed up:
as §1

The target in experiment [14] is KIT (UniProt P10721). The following applies: cell material: Lysate mix. Summed up: as §1
KIT, sequence (P10721 whole entry): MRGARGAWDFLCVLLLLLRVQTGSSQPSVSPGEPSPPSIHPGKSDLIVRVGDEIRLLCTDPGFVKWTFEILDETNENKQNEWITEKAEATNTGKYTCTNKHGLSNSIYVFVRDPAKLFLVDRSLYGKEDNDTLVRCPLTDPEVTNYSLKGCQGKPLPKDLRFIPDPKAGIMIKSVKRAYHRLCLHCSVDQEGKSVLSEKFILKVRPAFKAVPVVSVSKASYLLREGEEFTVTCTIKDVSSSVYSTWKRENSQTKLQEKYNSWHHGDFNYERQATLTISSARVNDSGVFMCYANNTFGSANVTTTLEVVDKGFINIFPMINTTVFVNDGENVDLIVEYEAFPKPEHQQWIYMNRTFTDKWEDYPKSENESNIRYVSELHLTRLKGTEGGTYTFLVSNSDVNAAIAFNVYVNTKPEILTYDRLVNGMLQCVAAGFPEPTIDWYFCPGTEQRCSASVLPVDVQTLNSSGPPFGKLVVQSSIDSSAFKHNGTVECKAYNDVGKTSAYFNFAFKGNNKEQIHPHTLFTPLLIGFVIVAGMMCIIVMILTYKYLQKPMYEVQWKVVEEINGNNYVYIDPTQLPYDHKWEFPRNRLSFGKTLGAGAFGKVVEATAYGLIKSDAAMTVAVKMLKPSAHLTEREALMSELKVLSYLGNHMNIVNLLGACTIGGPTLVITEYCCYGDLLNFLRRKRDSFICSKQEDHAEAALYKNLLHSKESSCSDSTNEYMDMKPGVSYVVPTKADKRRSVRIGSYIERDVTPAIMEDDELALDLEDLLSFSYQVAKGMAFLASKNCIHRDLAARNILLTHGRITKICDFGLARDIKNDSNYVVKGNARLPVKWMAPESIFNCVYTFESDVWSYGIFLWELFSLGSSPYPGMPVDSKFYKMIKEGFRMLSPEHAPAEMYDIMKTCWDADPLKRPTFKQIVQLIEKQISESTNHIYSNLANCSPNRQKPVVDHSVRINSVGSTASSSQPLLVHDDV

UniProt P45984, sequence (P45984 whole entry, looked up): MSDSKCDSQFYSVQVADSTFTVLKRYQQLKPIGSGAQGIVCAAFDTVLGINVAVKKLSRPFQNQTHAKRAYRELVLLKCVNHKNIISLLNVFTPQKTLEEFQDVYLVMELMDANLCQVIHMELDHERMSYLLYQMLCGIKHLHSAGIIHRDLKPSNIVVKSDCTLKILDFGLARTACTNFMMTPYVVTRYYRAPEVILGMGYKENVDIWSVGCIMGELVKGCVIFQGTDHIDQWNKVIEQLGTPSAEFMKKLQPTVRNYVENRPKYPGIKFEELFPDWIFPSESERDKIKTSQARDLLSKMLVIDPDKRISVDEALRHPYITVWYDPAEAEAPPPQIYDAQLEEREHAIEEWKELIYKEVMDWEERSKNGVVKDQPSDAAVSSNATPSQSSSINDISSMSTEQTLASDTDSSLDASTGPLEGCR
UniProt P06493, sequence (P06493 whole entry, looked up): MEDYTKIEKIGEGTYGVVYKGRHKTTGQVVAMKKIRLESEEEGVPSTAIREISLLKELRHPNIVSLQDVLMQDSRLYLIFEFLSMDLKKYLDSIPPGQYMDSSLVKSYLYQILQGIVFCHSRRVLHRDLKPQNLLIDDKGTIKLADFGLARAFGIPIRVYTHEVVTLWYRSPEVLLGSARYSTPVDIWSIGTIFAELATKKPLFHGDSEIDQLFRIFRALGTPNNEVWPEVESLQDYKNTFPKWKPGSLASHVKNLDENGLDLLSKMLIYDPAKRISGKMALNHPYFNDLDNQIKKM
UniProt Q14004, sequence (Q14004 whole entry, looked up): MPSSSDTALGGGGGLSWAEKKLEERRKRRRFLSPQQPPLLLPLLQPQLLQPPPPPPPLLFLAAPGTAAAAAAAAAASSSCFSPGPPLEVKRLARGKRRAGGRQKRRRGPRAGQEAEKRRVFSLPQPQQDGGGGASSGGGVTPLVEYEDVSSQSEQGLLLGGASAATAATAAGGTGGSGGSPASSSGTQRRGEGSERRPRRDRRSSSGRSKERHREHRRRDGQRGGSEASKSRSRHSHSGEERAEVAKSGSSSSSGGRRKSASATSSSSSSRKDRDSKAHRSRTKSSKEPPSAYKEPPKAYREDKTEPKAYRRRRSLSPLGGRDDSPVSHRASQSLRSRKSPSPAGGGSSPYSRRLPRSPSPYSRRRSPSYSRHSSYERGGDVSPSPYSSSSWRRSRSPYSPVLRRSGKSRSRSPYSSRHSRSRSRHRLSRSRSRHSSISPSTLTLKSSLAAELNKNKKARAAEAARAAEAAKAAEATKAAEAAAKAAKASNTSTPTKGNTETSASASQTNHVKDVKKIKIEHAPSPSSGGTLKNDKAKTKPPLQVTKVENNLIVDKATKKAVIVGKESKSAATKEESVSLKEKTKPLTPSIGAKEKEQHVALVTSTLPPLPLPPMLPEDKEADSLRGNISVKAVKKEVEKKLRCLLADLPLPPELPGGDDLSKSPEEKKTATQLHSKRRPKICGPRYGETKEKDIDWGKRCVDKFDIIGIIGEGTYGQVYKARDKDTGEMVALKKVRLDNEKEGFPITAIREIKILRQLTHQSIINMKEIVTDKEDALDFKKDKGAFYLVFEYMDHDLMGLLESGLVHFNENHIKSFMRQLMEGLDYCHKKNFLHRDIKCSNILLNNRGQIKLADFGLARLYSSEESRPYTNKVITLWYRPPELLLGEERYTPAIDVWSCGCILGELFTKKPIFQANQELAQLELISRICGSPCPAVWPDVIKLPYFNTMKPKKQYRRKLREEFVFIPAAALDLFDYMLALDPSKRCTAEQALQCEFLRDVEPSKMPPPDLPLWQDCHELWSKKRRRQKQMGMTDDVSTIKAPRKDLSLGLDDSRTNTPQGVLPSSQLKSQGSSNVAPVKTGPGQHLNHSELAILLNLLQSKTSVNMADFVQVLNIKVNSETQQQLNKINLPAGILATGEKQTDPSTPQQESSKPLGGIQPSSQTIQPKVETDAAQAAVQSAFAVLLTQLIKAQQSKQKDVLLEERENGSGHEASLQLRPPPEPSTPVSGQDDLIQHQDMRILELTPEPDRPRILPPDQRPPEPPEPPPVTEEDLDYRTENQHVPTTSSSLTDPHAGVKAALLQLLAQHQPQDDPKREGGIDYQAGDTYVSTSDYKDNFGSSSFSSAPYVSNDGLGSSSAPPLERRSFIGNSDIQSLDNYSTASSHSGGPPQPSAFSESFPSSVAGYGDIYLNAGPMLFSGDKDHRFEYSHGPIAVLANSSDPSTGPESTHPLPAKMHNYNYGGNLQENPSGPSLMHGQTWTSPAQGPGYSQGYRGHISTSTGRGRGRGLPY
UniProt P00519, sequence (P00519 whole entry): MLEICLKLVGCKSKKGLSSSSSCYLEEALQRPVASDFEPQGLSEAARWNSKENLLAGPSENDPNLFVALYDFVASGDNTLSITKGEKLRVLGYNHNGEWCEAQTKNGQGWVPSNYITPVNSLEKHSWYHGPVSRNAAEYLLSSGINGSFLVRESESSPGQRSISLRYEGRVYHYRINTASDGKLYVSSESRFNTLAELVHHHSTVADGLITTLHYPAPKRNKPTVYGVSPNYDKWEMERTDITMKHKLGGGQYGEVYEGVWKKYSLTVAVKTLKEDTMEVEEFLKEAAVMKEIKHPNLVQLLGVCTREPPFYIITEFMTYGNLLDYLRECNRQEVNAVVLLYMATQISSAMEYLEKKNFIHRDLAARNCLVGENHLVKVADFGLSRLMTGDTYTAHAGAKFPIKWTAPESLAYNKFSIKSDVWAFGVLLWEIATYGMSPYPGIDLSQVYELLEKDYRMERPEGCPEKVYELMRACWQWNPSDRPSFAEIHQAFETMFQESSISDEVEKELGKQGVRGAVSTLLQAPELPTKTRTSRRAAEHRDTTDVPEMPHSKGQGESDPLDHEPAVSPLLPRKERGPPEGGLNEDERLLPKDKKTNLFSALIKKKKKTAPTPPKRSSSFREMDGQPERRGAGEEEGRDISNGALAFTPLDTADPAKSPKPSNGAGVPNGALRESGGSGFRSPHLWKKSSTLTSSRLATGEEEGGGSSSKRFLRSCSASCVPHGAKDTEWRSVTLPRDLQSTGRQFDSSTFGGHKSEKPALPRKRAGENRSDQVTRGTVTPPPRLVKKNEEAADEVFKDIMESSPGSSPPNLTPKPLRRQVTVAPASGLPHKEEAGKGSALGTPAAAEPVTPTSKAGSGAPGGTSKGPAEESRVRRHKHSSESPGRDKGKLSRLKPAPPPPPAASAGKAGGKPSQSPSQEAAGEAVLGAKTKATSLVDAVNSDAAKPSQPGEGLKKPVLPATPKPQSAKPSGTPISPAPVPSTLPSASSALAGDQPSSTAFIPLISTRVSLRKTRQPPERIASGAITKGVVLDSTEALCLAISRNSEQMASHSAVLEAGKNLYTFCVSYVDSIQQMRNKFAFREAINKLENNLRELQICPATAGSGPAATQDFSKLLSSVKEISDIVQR

For `O=C(NCCNC(=O)c1cc(Nc2cc(C3CC3)[nH]n2)nc(N2CCN(Cc3ccc(S(=O)(=O)F)cc3)CC2)n1)OC1CC/C=C/CCC1` (stereo not drawn), the pIC50 – broadly, −log10 of the IC50, conventionally taken in molar units – in experiment [1] (cell material: Lysate mix) is 4.88; in [2], below 4.52; in experiment [3] (cell material: Jurkat cells), 5.11; in experiment [3] (cell material: Jurkat lysate), below 4.52; in experiment [3] (cell material: Lysate mix) it was below 4.52; in experiment [4] (cell material: Jurkat cells), 4.8. For the same compound, the negative logarithm of the IC50 (pIC50) was below 4.52 in experiment [4] (cell material: Jurkat lysate); below 4.52 in [4] (cell material: Lysate mix); below 4.52 in experiment [5] (cell material: Jurkat lysate); below 4.52 in experiment [5] (cell material: Lysate mix); 6.02 in experiment [6] (cell material: Jurkat cells); below 4.52 in [6] (cell material: Jurkat lysate). Moreover, the pIC50 in experiment [6] (cell material: Lysate mix) was below 4.52; in [7] (cell material: Jurkat cells), 4.86; in experiment [7] (cell material: Jurkat lysate), below 4.52; in [7] (cell material: Lysate mix), below 4.52; in experiment [8] (cell material: Jurkat cells), 6.36; in experiment [8] (cell material: Jurkat lysate) it was 6.28. Further, the pIC50 in experiment [8] (cell material: Lysate mix) was below 4.52; in experiment [9] (cell material: Jurkat lysate), below 4.52; in [9] (cell material: Lysate mix) it was below 4.52; in [10] (cell material: Jurkat cells), 5.7; in [10] (cell material: Jurkat lysate) it was below 4.52; in experiment [11] (cell material: Jurkat lysate), below 4.52. The pIC50 in [11] (cell material: Lysate mix), in [12] and in experiment [13] was below 4.52 in each case.
As for `Cc1cc(Nc2cc(C(=O)NCCNC(=O)OC3CC/C=C/CCC3)nc(N3CCN(Cc4ccc(S(=O)(=O)F)cc4)CC3)n2)n[nH]1` (stereo not drawn), the pIC50 was 4.7 in experiment [1] (cell material: Lysate mix); below 4.52 in [3] (cell material: Lysate mix); below 4.52 in experiment [4] (cell material: Lysate mix); below 4.52 in [5] (cell material: Lysate mix); below 4.52 in experiment [6] (cell material: Lysate mix); below 4.52 in experiment [7] (cell material: Lysate mix). Further, the pIC50 in experiment [9] (cell material: Lysate mix), in experiment [11] (cell material: Lysate mix) and in experiment [13] was below 4.52 in each case.
As for `CCNC(=O)c1cc(Nc2cc(C)[nH]n2)nc(N2CCN(Cc3ccc(S(=O)(=O)F)cc3)CC2)n1`, the pIC50 is below 4.52 in experiment [14]; 5.64 in [1] (cell material: Lysate mix); below 4.52 in experiment [2]; below 4.52 in [3] (cell material: Lysate mix); below 4.52 in experiment [4] (cell material: Lysate mix); below 4.52 in experiment [6] (cell material: Lysate mix). In addition, the pIC50 in experiment [7] (cell material: Lysate mix) was below 4.52; in experiment [8] (cell material: Lysate mix), 5.74; in experiment [9] (cell material: Lysate mix) it was below 4.52; in [10] (cell material: Lysate mix), 5.2; in experiment [13], below 4.52.
Turning to `C#CCNC(=O)c1cc(Nc2cc(C3CC3)[nH]n2)nc(N2CCN(Cc3ccc(S(=O)(=O)F)cc3)CC2)n1`, the pIC50 in [14] is below 4.52; in [1] (cell material: Jurkat lysate) it was 5.48; in [1] (cell material: Lysate mix) it was 5.81; in experiment [2], below 4.52; in experiment [3] (cell material: Jurkat cells) it was 6.32; in experiment [3] (cell material: Jurkat lysate), 5.37. For the same compound, the pIC50 was 5.7 in [3] (cell material: Lysate mix); 5.88 in experiment [4] (cell material: Jurkat cells); below 4.52 in [4] (cell material: Jurkat lysate); below 4.52 in [4] (cell material: Lysate mix); 5.86 in experiment [5] (cell material: Jurkat cells); below 4.52 in [5] (cell material: Jurkat lysate). The pIC50 in experiment [5] (cell material: Lysate mix) was 5.59; in experiment [6] (cell material: Jurkat cells), 6.19; in experiment [6] (cell material: Jurkat lysate) it was below 4.52; in experiment [7] (cell material: Jurkat cells), 5.64; in [7] (cell material: Jurkat lysate), 4.67; in experiment [7] (cell material: Lysate mix) it was 4.67. Further, the pIC50 is 6.53 in experiment [8] (cell material: Jurkat cells); 6.64 in experiment [8] (cell material: Jurkat lysate); 5.36 in experiment [9] (cell material: Jurkat cells); below 4.52 in experiment [9] (cell material: Jurkat lysate); below 4.52 in experiment [9] (cell material: Lysate mix); 5.92 in experiment [10] (cell material: Jurkat cells). Further, the pIC50 in experiment [10] (cell material: Jurkat lysate) was 5.22; in [10] (cell material: Lysate mix) it was 5.72; in [11] (cell material: Jurkat cells), 6.36; in experiment [11] (cell material: Lysate mix), below 4.52; in experiment [12], below 4.52.
In the case of `C#CCNC(=O)c1cc(Nc2cc(C)[nH]n2)nc(N2CCN(Cc3ccc(S(=O)(=O)F)cc3)CC2)n1`, the pIC50 in experiment [14], in experiment [3] (cell material: Lysate mix), in experiment [4] (cell material: Lysate mix), in experiment [6] (cell material: Lysate mix), in experiment [7] (cell material: Lysate mix) and in experiment [9] (cell material: Lysate mix) was below 4.52 each time. Also, the results for the pIC50 in experiment [10] (cell material: Lysate mix), in [12] and in experiment [13] were 5.34, below 4.52 and below 4.52, respectively.
On to `CCNC(=O)c1cc(Nc2cc(C3CC3)[nH]n2)nc(N2CCN(Cc3ccc(S(=O)(=O)F)cc3)CC2)n1`, for which the pIC50 in experiment [14] was below 4.52; in experiment [1] (cell material: Lysate mix), 5.26; in [2] it was below 4.52; in experiment [3] (cell material: Lysate mix), 5.5; in experiment [4] (cell material: Lysate mix), below 4.52; in [5] (cell material: Lysate mix), 5.78. Further, the pIC50 in experiment [10] (cell material: Lysate mix) is 5.62; in experiment [13], 4.92.
